Non-standard residues stand in square brackets, D forms with d. Residues, ends and D or L forms follow the SMILES beside them. F2Pmp = N[C@@H](Cc1ccc(C(F)(F)P(=O)(O)O)cc1)C(=O)O

By IC50 is commonly meant the concentration at which inhibition is half-maximal. High values mean weaker potency, low ones greater potency.

The first assay addresses T1, Tyrosine-protein phosphatase non-receptor type 1 [1-298] (Homo sapiens, UniProt P18031).
T1 construct: 1-298
T1 sequence (P18031 whole entry): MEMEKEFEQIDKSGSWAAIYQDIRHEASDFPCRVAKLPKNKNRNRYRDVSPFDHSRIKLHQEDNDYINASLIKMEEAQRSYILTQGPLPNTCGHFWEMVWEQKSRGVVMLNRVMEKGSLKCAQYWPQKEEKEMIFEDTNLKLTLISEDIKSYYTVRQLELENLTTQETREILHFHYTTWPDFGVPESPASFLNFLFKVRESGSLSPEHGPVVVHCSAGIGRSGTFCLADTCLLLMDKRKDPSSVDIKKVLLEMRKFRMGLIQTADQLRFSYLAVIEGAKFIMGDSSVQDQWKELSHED
As to the kind of experiment: Phosphatase Inhibition Assay.
Conditions: not given
In turn, `Cc1ccc(S(=O)(=O)N[C@@H](Cc2ccc(C3CC(=O)NS3(=O)=O)cc2)c2nc3ccccc3[nH]2)cc1` (stereo partly drawn) [N-[(1S)-1-(1H-1,3-benzodiazol-2-yl)-2-[4-(1,1,3-trioxo-1,2-thiazolidin-5-yl)phenyl]ethyl]-4-methylbenzene-1-sulfonamide] returned an IC50 of 80 nM. Same read-out and setting: for `CC(C)c1ccc(S(=O)(=O)N[C@@H](Cc2ccc(C3CC(=O)NS3(=O)=O)cc2)c2nc3ccccc3[nH]2)cc1` (stereo partly drawn) [N-[(1S)-1-(1H-1,3-benzodiazol-2-yl)-2-[4-(1,1,3-trioxo-1,2-thiazolidin-5-yl)phenyl]ethyl]-4-(propan-2-yl)benzene-1-sulfonamide] the value was 100 nM; for `O=C1CC(c2ccc(C[C@H](NS(=O)(=O)c3ccc(Oc4ccncc4)cc3)c3nc4ccccc4[nH]3)cc2)S(=O)(=O)N1` (stereo partly drawn) [N-[(1S)-1-(1H-1,3-benzodiazol-2-yl)-2-[4-(1,1,3-trioxo-1,2-thiazolidin-5-yl)phenyl]ethyl]-4-(pyridin-4-yloxy)benzene-1-sulfonamide], 120 nM; for `O=C1CC(c2ccc(C[C@H](NS(=O)(=O)c3ccc(Br)c(C(F)(F)F)c3)c3nc4ccccc4[nH]3)cc2)S(=O)(=O)N1` (stereo partly drawn) [N-[(1S)-1-(1H-1,3-benzodiazol-2-yl)-2-[4-(1,1,3-trioxo-1,2-thiazolidin-5-yl)phenyl]ethyl]-4-bromo-3-(trifluoromethyl)benzene-1-sulfonamide], 40 nM. Turning to `O=C1CC(c2ccc(C[C@H](NS(=O)(=O)c3ccccc3)c3nc4ccccc4[nH]3)cc2Br)S(=O)(=O)N1` (stereo partly drawn) [N-[(1S)-1-(1H-1,3-benzodiazol-2-yl)-2-[3-bromo-4-(1,1,3-trioxo-1,2-thiazolidin-5-yl)phenyl]ethyl]benzenesulfonamide], the IC50 amounted to 170 nM.

`O=C1CC(c2ccc(C[C@H](NS(=O)(=O)c3cccc(Oc4ccccc4)c3)c3nc4ccccc4[nH]3)cc2)S(=O)(=O)N1` (stereo partly drawn) [N-[(1S)-1-(1H-1,3-benzodiazol-2-yl)-2-[4-(1,1,3-trioxo-1,2-thiazolidin-5-yl)phenyl]ethyl]-3-phenoxybenzene-1-sulfonamide] gave an IC50 of 110 nM. `Cc1ccccc1S(=O)(=O)N[C@@H](Cc1ccc(C2CC(=O)NS2(=O)=O)cc1)c1nc2ccccc2[nH]1` (stereo partly drawn) [N-[(1S)-1-(1H-1,3-benzodiazol-2-yl)-2-[4-(1,1,3-trioxo-1,2-thiazolidin-5-yl)phenyl]ethyl]-2-methylbenzene-1-sulfonamide] displayed an IC50 of 300 nM. With `O=C1CC(c2ccc(C[C@H](NS(=O)(=O)c3ccccc3Cl)c3nc4ccccc4[nH]3)cc2)S(=O)(=O)N1` (stereo partly drawn) [N-[(1S)-1-(1H-1,3-benzodiazol-2-yl)-2-[4-(1,1,3-trioxo-1,2-thiazolidin-5-yl)phenyl]ethyl]-2-chlorobenzene-1-sulfonamide], half-maximal inhibition (IC50) was put at 160 nM. Consider `O=C1CC(c2ccc(C[C@H](NS(=O)(=O)c3ccccc3)c3nc4ccccc4[nH]3)cc2F)S(=O)(=O)N1` (stereo partly drawn) [N-[(1S)-1-(1H-1,3-benzodiazol-2-yl)-2-[3-fluoro-4-(1,1,3-trioxo-1,2-thiazolidin-5-yl)phenyl]ethyl]benzenesulfonamide], for which half-maximal inhibition (IC50) was put at 34 nM. This IC50 lies about 4.7-fold lower than the previous one. The same measure, in the same setting: for `Cc1ccc2nc(N[C@@H](Cc3ccc([C@@H]4CC(=O)NS4(=O)=O)cc3)c3nc4ccccc4[nH]3)sc2c1` [(5S)-5-{4-[(2S)-2-(1H-1,3-benzodiazol-2-yl)-2-[(6-methyl-1,3-benzothiazol-2-yl)amino]ethyl]phenyl}-1,2-thiazolidine-1,1,3-trione] the value was 1100 nM; for `CC(F)(F)C(=O)N[C@@H](Cc1ccc(C2CC(=O)NS2(=O)=O)cc1)c1nc2ccccc2[nH]1` (stereo partly drawn) [N-[(1S)-1-(1H-1,3-benzodiazol-2-yl)-2-[4-(1,1,3-trioxo-1,2-thiazolidin-5-yl)phenyl]ethyl]-2,2-difluoropropanamide], 300 nM; for `Cc1cc(S(=O)(=O)N[C@@H](Cc2ccc(C3CC(=O)NS3(=O)=O)cc2)c2nc3ccccc3[nH]2)ccc1-c1ccccc1` (stereo partly drawn) [N-[(1S)-1-(1H-1,3-benzodiazol-2-yl)-2-[4-(1,1,3-trioxo-1,2-thiazolidin-5-yl)phenyl]ethyl]-3-methyl-4-phenylbenzene-1-sulfonamide], 90 nM. As to `O=C1CC(c2ccc(C[C@H](NS(=O)(=O)c3ccccc3)c3nc4ccccc4[nH]3)cc2Cl)S(=O)(=O)N1` (stereo partly drawn) [N-[(1S)-1-(1H-1,3-benzodiazol-2-yl)-2-[3-chloro-4-(1,1,3-trioxo-1,2-thiazolidin-5-yl)phenyl]ethyl]benzenesulfonamide], it took 75 nM to reach half-maximal inhibition (IC50).

As for `CC(C)C(=O)N[C@@H](Cc1ccc(C2CC(=O)NS2(=O)=O)cc1)c1nc2ccccc2[nH]1` (stereo partly drawn) [N-[(1S)-1-(1H-1,3-benzodiazol-2-yl)-2-[4-(1,1,3-trioxo-1,2-thiazolidin-5-yl)phenyl]ethyl]-2-methylpropanamide], the IC50 amounted to 3200 nM.

In turn, `O=C(CCc1ccccc1)N[C@@H](Cc1ccc(C2CC(=O)NS2(=O)=O)cc1)c1nc2ccccc2[nH]1` (stereo partly drawn) [N-[(1S)-1-(1H-1,3-benzodiazol-2-yl)-2-[4-(1,1,3-trioxo-1,2-thiazolidin-5-yl)phenyl]ethyl]-3-phenylpropanamide] returned an IC50 of 600 nM. Against the preceding compound, the IC50 is about 5.3-fold lower. The compound `O=C1CC(c2ccc(C[C@H](NS(=O)(=O)c3ccc(C(F)(F)F)cc3Br)c3nc4ccccc4[nH]3)cc2)S(=O)(=O)N1` (stereo partly drawn) [N-[(1S)-1-(1H-1,3-benzodiazol-2-yl)-2-[4-(1,1,3-trioxo-1,2-thiazolidin-5-yl)phenyl]ethyl]-2-bromo-4-(trifluoromethyl)benzene-1-sulfonamide] came in with a concentration for half-maximal inhibition (IC50) of 170 nM. The same measure, in the same setting: the figure for `O=C1CC(c2ccc(C[C@H](NS(=O)(=O)c3cc(C(F)(F)F)ccc3C(F)(F)F)c3nc4ccccc4[nH]3)cc2)S(=O)(=O)N1` (stereo partly drawn) [N-[(1S)-1-(1H-1,3-benzodiazol-2-yl)-2-[4-(1,1,3-trioxo-1,2-thiazolidin-5-yl)phenyl]ethyl]-2,5-bis(trifluoromethyl)benzene-1-sulfonamide] is 210 nM; for `O=C1CC(c2ccc(C[C@H](NS(=O)(=O)c3ccccc3)c3nc4ccccc4[nH]3)cc2)S(=O)(=O)N1` (stereo partly drawn) [N-[(1S)-1-(1H-1,3-benzodiazol-2-yl)-2-[4-(1,1,3-trioxo-1,2-thiazolidin-5-yl)phenyl]ethyl]benzenesulfonamide] it is 120 nM; for `CC(=O)N[C@@H](Cc1ccc(C2CC(=O)NS2(=O)=O)cc1)c1nc2ccccc2[nH]1` (stereo partly drawn) [N-[(1S)-1-(1H-1,3-benzodiazol-2-yl)-2-[4-(1,1,3-trioxo-1,2-thiazolidin-5-yl)phenyl]ethyl]acetamide] it is 2600 nM.

In turn, `C#Cc1cc(C[C@H](NS(=O)(=O)c2ccccc2)c2nc3ccccc3[nH]2)ccc1C1CC(=O)NS1(=O)=O` (stereo partly drawn) [N-[(1S)-1-(1H-1,3-benzodiazol-2-yl)-2-[3-ethynyl-4-(1,1,3-trioxo-1,2-thiazolidin-5-yl)phenyl]ethyl]benzenesulfonamide] had an IC50 of 120 nM. Same read-out and setting: for `O=C1CC(c2ccc(C[C@H](NS(=O)(=O)c3cccc(Oc4ccc(C(F)(F)F)cc4)c3)c3nc4ccccc4[nH]3)cc2)S(=O)(=O)N1` (stereo partly drawn) [N-[(1S)-1-(1H-1,3-benzodiazol-2-yl)-2-[4-(1,1,3-trioxo-1,2-thiazolidin-5-yl)phenyl]ethyl]-3-[4-(trifluoromethyl)phenoxy]benzene-1-sulfonamide] the value was 220 nM.

In the case of `O=C1CC(c2ccc(C[C@H](NS(=O)(=O)c3cccc(F)c3)c3nc4ccccc4[nH]3)cc2)S(=O)(=O)N1` (stereo partly drawn) [N-[(1S)-1-(1H-1,3-benzodiazol-2-yl)-2-[4-(1,1,3-trioxo-1,2-thiazolidin-5-yl)phenyl]ethyl]-3-fluorobenzene-1-sulfonamide], 66 nM corresponded to half-maximal inhibition (IC50).

Staying with this assay, now noted: pH 7; 22 °C.
`NC(=O)[C@H](Cc1ccccc1)NC(=O)[C@@H](NC(=O)Cc1ccc(C(F)(F)P(=O)(O)O)cc1)C(=O)O` [(2R)-2-{[(1S)-1-carbamoyl-2-phenylethyl]carbamoyl}-2-(1-{4-[difluoro(phosphono)methyl]phenyl}acetamido)acetic acid] showed an IC50 of 33000 nM. Consider `CC(=O)N[C@@H](Cc1ccccc1)C(=O)N[C@@H](Cc1ccc(C(F)(F)P(=O)(O)O)cc1)C(N)=O` [DFMP 5] (Ac-Phe-[F2Pmp]-NH2), for which it took 1700 nM to reach half-maximal inhibition (IC50). This IC50 is about 19-fold lower than that of the compound before. For the compound `CN1CCOc2cc(S(=O)(=O)N[C@@H](Cc3ccc([C@@H]4CC(=O)NS4(=O)=O)cc3)c3nc4ccccc4[nH]3)ccc21` [N-[(1S)-1-(1H-benzoimidazol-2-yl)-2-[4-[(5S)-1,1,3-trioxo-1,2-thiazolidin-5-yl]phenyl]ethyl]-7-methyl-10-oxa-7-azabicyclo[4.4.0]deca-2,4,11-triene-3-sulfonamide], the IC50 amounted to 59 nM. On to `O=C1C[C@@H](c2ccc(C[C@H](Nc3nc4c(F)cc(Cl)cc4s3)c3nc4ccccc4[nH]3)cc2)S(=O)(=O)N1` [(5S)-5-{4-[(2S)-2-(1H-1,3-benzodiazol-2-yl)-2-[(6-chloro-4-fluoro-1,3-benzothiazol-2-yl)amino]ethyl]phenyl}-1,2-thiazolidine-1,1,3-trione], for which the IC50 came out at 1800 nM. Same read-out and setting: the figure for `NC(=O)[C@H](Cc1ccc(C(F)(F)P(=O)(O)O)cc1)NC(=O)CNC(=O)Cc1ccc(C(F)(F)P(=O)(O)O)cc1` [({4-[(2S)-2-carbamoyl-2-[2-(1-{4-[difluoro(phosphono)methyl]phenyl}acetamido)acetamido]ethyl]phenyl}difluoromethyl)phosphonic acid] is 42 nM; for `O=C1C[C@@H](c2ccc(C[C@H](NC(=O)C(F)(F)F)c3nc4ccc(C(F)(F)F)cc4[nH]3)cc2)S(=O)(=O)N1` [N-{(1S)-2-[4-(1,1-dioxido-3-oxoisothiazolidin-5-yl)phenyl]-1-[5-(trifluoromethyl)-1H-benzimidazol-2-yl]ethyl}-2,2,2-trifluoroacetamide] it is 110 nM. On to `NC(=O)[C@H](Cc1ccc(C(F)(F)P(=O)(O)O)cc1)NC(=O)[C@H](Cc1ccccc1)NC(=O)Cc1ccc(C(F)(F)P(=O)(O)O)cc1` [({4-[(2S)-2-carbamoyl-2-[(2S)-2-(1-{4-[difluoro(phosphono)methyl]phenyl}acetamido)-3-phenylpropanamido]ethyl]phenyl}difluoromethyl)phosphonic acid], for which the IC50 stood at 1.7 nM.
